This is an account of results in US20220089662A1, “PREPRATION METHOD AND APPLICATION OF ANTI-INFLAMMATORY KIDNEY PROTECTING CLAM PEPTIDE” (Chenland Nutritionals Inc., priority 2020, published 2022).

The test system of assay [1] is spontaneously hypertensive rats (SHR). The assay is described as follows: Anti-inflammatory test after administration in spontaneously hypertensive rats (serum IL-8, TNF-α, hs-CRP). The assay is classed as in vivo, rat. As to the method: Anti-inflammatory test after administration in spontaneously hypertensive rats is as follows.
(§1) Spontaneously hypertensive rats were purchased from Beijing Weitong Lihua Experimental Animal Technology Co., Ltd.
Forty male spontaneously hypertensive rats (SHR), aged about 12 weeks and weighing about 270 G, were adaptively fed for one week. […] The rats in the AC group were given captopril 10 mg/kg by gavage, at the same time, the MC group was given the same volume of distilled water. The drug was administered once a day for 4 weeks. Serum IL-8, TNF-α and hs-CRP were measured, and the data were analyzed by SPSS software.

For assay [2] the test system is unchanged. The experiment in a line: Protection of renal function in spontaneously hypertensive rats (SCr, SUA, BUN). The assay is classed as in vivo, rat. Conditions: SHR serum, AC: captopril 10 mg/kg by gavage once a day for 4 weeks. The protocol:
as §1
Forty male spontaneously hypertensive rats (SHR), aged about 12 weeks and weighing about 270 G, were adaptively fed for one week. […] The rats in the AC group were given captopril 10 mg/kg by gavage, At the same time, the MC group was given the same volume of distilled water. The drug was administered once a day for 4 weeks. SCr, SUA and BUN were measured, and the data were analyzed by SPSS software.

Setting [3] is: AC: captopril 10 mg/kg by gavage once a day for 4 weeks.

In assay [1] (setting [3]), `C[C@H](CS)C(=O)N1CCC[C@H]1C(=O)O` [captopril] returned a TNF-α of 87.41 ± 19.19 pg/mL and a hs-CRP of 1.53 ± 0.41 µg/L. Besides, the “serum IL-8 level” value in assay [1] (positive drug group (captopril 10 mg/kg), 4 weeks) was 122 ± 12.15 pg/mL. In addition, in assay [2], the BUN came to 10.56 ± 3.17 mmol/L, the SCr was 421.50 ± 101.20 µmol/L and the SUA worked out at 211.60 ± 39.89 mg/L.
